Data as given in patent publication US20100022584A1, “Modulation of Glutamine Synthetase Activity” (priority 2006, published 2010).
Residue numbers refer to the chain shown, from its start.

Key:
[1] = target: T1, adenylylated WT enzyme, WT (AD) glutamine synthetase (Escherichia coli, UniProt P0A9C5); test: HPLC forward-reaction glutamine synthetase assay with serine protease inhibitors; assay type: biochemical, E. coli; details: 1 mM inhibitor; for % Reduction in ADP-based Specific Activity / % Reduction in Glutamine-based Specific Activity / % Conversion: WT (AD); for % Reduction in ADP-based Specific Activity / % Reduction in Glutamine-based Specific Activity: 60 min pre-incubation, vs no-inhibitor control, positive = activity increased; for % Conversion: glutamine-based divided by ADP-based specific activity; for inhibition of the enzyme (in words): adenylylated WT enzyme, HPLC assays
T1 construct: made in house; host or cells: E. coli carrying pBSK-ECgln (pBluescript II SK+), continuous culture; YMC11 is the expression strain named for this plasmid
T1 sequence (P0A9C5 2-469 limits assumed): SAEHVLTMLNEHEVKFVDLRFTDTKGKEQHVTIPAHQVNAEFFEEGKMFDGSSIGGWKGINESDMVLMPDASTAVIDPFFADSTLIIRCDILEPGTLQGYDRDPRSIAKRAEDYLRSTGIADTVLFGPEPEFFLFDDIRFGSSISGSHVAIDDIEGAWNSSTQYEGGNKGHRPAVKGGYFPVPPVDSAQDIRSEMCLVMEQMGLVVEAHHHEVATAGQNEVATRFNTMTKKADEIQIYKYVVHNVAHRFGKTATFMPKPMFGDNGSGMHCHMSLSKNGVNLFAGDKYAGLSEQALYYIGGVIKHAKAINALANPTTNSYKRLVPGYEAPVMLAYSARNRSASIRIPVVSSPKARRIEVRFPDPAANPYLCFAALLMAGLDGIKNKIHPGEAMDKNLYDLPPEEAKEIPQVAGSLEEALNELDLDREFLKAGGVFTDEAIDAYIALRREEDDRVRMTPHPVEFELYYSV
Method: (§1) This assay was set up to measure glutamine synthetase activity according to the forward reaction, and measures the amount of glutamine formed from […] of L-glutamate in the presence of MnCO3-ATP (the basis of one reaction) and MgATP (the basis of a second reaction). In addition, the amount of ADP formed is also measured in a separate assay, using the same reagents.
(§2) All enzyme preparations were adjusted to the same concentration of protein, and added to the assay mixture in a volume of 50 μl. The addition of the enzyme started the reaction, which was then allowed to proceed for 1 hour. The reaction was stopped by the addition of 6 μl of a 50% solution of trichloroacetic acid. Each assay was then aliquoted into 4 HPLC vials (150 μl per vial), two of which were assayed for glutamate and glutamine using a Phenomenex Luna 5 μC18 Column on an Agilent 100 HPLC instrument. The ATP/ADP assays were run on a Chromolith Performance RP-18c column also using an Agilent 100 HPLC instrument.
(§3) As it is believed that two putative catalytic triads, similar to those in the serine proteases, are involved in the reaction mechanism of glutamine synthetase, certain of the mutants were also assayed by HPLC in the presence of the serine protease inhibitors, AEBSF and PMSF, in order to assess the effect that these inhibitors had on the enzyme. The enzymes assessed were the adenylylated WT enzyme, the deadenylylated WT enzyme, and the mutant enzymes S52A, S52A Y397V, S53A, S53A Y397V, S52A S53A and S52A S53A Y397V. The enzymes were pre-incubated for 60 minutes in the presence of 1 mM PMSF or 1 mM AEBSF. A control reaction was set up for each enzyme, which contained no inhibitor. Each enzyme was then added to assays set up as described above. The assay was allowed to proceed for 60 minutes, then stopped by the addition of […] of 50% TCA, after which they were analysed by HPLC. All assays were run in triplicate.
(§4) In addition to the γ-glutamyl transferase assays, assays were also developed to measure the rate of conversion of ATP and glutamate to ADP and glutamine by HPLC. These were set up as single assays but analysed separately for glutamate and glutamine and ATP and ADP. The conversion rates for glutamate to glutamine, in both the presence of Mn^2+ and Mg^2+ by glutamine synthetase, is referred to as the […] specific activity and is presented in μmoles/min/mg protein. The conversion rates for ATP to ADP, in both the presence of Mn^2+ and Mg^2+ by glutamine synthetase, is referred to as the ADP-based specific activity and is presented in μmoles/min/mg protein. The percentage of conversion was also calculated by dividing the glutamine-based specific activity by the ADP-based specific activity, and this value is interpreted as the ability of the enzyme to complete both steps of the reaction, i.e., glutamate to glutamine and ATP to ADP, at an equivalent level of efficiency.

[2] = target: T2, glutamine synthetase mutant S53A Y397V (Escherichia coli, UniProt P0A9C5, S54A/Y398V); test: as above; assay type: biochemical, E. coli; details: 1 mM inhibitor; for % Reduction in ADP-based Specific Activity / % Reduction in Glutamine-based Specific Activity: 60 min pre-incubation, vs no-inhibitor control, positive = activity increased; for % Conversion: glutamine-based divided by ADP-based specific activity
T2 construct: made in house; host or cells: E. coli YMC11 (glutamine synthetase auxotroph), pBluescript II SK+
T2 sequence (P0A9C5 2-469 S54A/Y398V limits assumed): T1 sequence (P0A9C5 2-469 limits assumed) with S53A, Y397V
Method: as §1, §2, §3, §4

Structure (SMILES) | % Reduction in ADP-based Specific Activity ([1]; Mg assay) | % Reduction in Glutamine-based Specific Activity ([1]; Mg assay) [%] | % Conversion ([1]; Mg assay) [%] | % Reduction in ADP-based Specific Activity ([1]; Mn assay) [%] | % Reduction in Glutamine-based Specific Activity ([1]; Mn assay) [%] | % Conversion ([1]; Mn assay) [%] | inhibition of the enzyme (in words) [1] | inhibition of the enzyme (in words) ([2]; HPLC assays) | % Reduction in ADP-based Specific Activity ([2]; Mg assay) [%] | % Reduction in Glutamine-based Specific Activity ([2]; Mg assay) [%] | % Reduction in ADP-based Specific Activity ([2]; Mn assay) | % Reduction in Glutamine-based Specific Activity ([2]; Mn assay) | % Conversion ([2]; Mn assay) [%]
NCCc1ccc(S(=O)(=O)F)cc1 [AEBSF] | −34.60% | −24.59 | 134 | −26.76 | −14.86 | 118 | appeared to cause inhibition | appeared to cause inhibition | −100.00 | −55.60 | +14.80% | +5.16% | 75
O=S(=O)(F)Cc1ccccc1 [PMSF] | +48.13% | −46.33 | 42 | −15.63 | −49.20 | 61 | found to inhibit |  |  |  | +39.67% | +6.07% | 63
